Reference: US8574563B2 (Bristol-Myers Squibb Company, priority 2006, dated 2013)

System: HCV 1b-377-neo replicon cells
Assay: HCV replicon assay, HCV 1b-377-neo replicon cells (1b FRET)
Type: cell-based, Hepatitis C virus genotype 1b
Conditions: HCV 1b-377-neo replicon cells; HCV 1b genotype; read-out: EC50 range against HCV 1b (Table 2, Range)
Procedure, shortened: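 Compounds were tested in genotype 1b subgenomic replicon cells carrying a neomycin marker, alongside a matched replicon line with an NS5A Y2065H substitution that confers resistance to a reference NS5A inhibitor.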

Row | Structure (SMILES) | EC50 [nM]
1 | CCN(CC)[C@@H](C(=O)N1CCC[C@H]1c1ncc(-c2ccc(-c3ccc(-c4cnc([C@@H]5CCCN5C(=O)[C@@H]5CCCO5)[nH]4)cc3)cc2)[nH]1)c1ccccc1 [Example 106, (1R)-N,N-diethyl-2-oxo-1-phenyl-2-((2S)-2-(5-(4′-(2-((2S)-1-((2S)-tetrahydro-2-furanylcarbonyl)-2-pyrrolidinyl)-1H-imidazol-5-yl)-4-biphenylyI)-1H-imidazol-2-yl)-1-pyrrolidinyl)ethanamine] | 0.001 to 0.999

Same assay, conditions: Hepatitis C virus, HCV 1b-377-neo replicon cells; HCV 1b genotype; read-out: EC50 range against HCV 1b (Table 2, Range)

Row | Structure (SMILES) | EC50 [nM]
2 | COC(=O)N[C@@H](C(=O)N1CCC[C@H]1c1ncc(-c2ccc(-c3ccc(-c4cnc([C@@H]5CCCN5C(=O)[C@H](C)c5ccccc5)[nH]4)cc3)cc2)[nH]1)c1ccccc1 [Example 84-76, methyl ((1R)-2-oxo-1-phenyl-2-((2S)-2-(5-(4′-(2-((2S)-1-((2R)-2-phenylpropanoyl)-2-pyrrolidinyl)-1H-imidazol-5-yl)-4-biphenylyl)-1H-imidazol-2-yl)-1-pyrrolidinyl)ethyl)carbamate] | 0.001 to 0.999
3 | COC(=O)N[C@H](C(=O)N1CCC[C@H]1c1ncc(-c2ccc(-c3ccc(-c4cnc([C@@H]5CCCN5C(=O)[C@@H](NC(=O)OC)C(C)C)[nH]4)c(F)c3)cc2)[nH]1)C(C)C [Example D40, methyl ((1S)-1-(((2S)-2-(5-(3′-fluoro-4′-(2-((2S)-1-((2S)-2-((methoxycarbonyl)amino)-3-methylbutanoyl)-2-pyrrolidinyl)-1H-imidazol-5-yl)-4-biphenylyl)-1H-imidazol-2-yl)-1-pyrrolidinyl)carbony)-2-methylpropyl) carbamate] | 0.001 to 0.999
4 | COC(=O)N[C@H](C(=O)N1C[C@@H](F)C[C@H]1c1ncc(-c2ccc(-c3ccc(-c4cnc([C@@H]5C[C@H](F)CN5C(=O)[C@@H](NC(=O)OC)C(C)C)[nH]4)cc3)cc2)[nH]1)C(C)C [JG-10, methyl ((1S)-1-(((2S,4S)-4-fluoro-2-(5-(4′-(2-((2S,4S)-4-fluoro-1-((2S)-2-((methoxycarbonyl)amino)-3-methylbutanoyl)-2-pyrrolidinyl)-1H-imidazol-5-yl)-4-biphenylyl)-1H-imidazol-2-yl)-1-pyrrolidinyl)carbonyl)-2-methylpropyl)carbamate] | 1 to 99
5 | C[C@@H](c1ncc(-c2ccc(-c3ccc(-c4cnc([C@H](C)N(C)C(=O)[C@@H](c5ccccc5)N5CCCCC5)[nH]4)cc3)cc2)[nH]1)N(C)C(=O)[C@@H](c1ccccc1)N1CCCCC1 [Example 24-18-3, (2R,2′R)-N,N′-(4,4′-biphenyldiylbis(1H-imidazole-5,2-diyl(1S)-1,1-ethanediyl))bis(N-methyl-2-phenyl-2-(1-piperidinyl)acetamide)] | 0.001 to 0.999
6 | COC(=O)N[C@@H](Cn1cccn1)C(=O)N1CCC[C@H]1c1ncc(-c2ccc(-c3ccc(-c4cnc([C@@H]5CCCN5C(=O)[C@@H](NC(=O)OC)[C@@H](C)OC)[nH]4)cc3)cc2)[nH]1 [cj-39, methyl ((1S)-2-((2S)-2-(5-(4′-(2-((2S)-1-(N-(methoxycarbonyl)-O-methyl-L-threonyl)-2-pyrrolidinyl)-1H-imidazol-5-yl)-4-biphenylyl)-1H-imidazol-2-yl)-1-pyrrolidinyl)-2-oxo-1-(1H-pyrazol-1-ylmethyl)ethyl)carbamate] | 0.001 to 0.999
7 | CO[C@@H](C(=O)N1CCC[C@H]1c1ncc(-c2ccc(-c3ccc(-c4cnc([C@@H]5CCCN5C(=O)[C@H](OC)c5ccccc5)[nH]4)cc3)cc2)[nH]1)c1ccccc1 [Example 8, 5,5′-(4,4′-biphenyldiyl)bis(2-((2S)-1-((2R)-2-methoxy-2-phenylacetyl)-2-pyrrolidinyl)-1H-imidazole)] | 0.001 to 0.999
8 | COC(=O)N[C@@H](C)C(=O)N1CCC[C@H]1c1ncc(-c2ccc(-c3ccc(-c4cnc([C@@H]5CCCN5C(=O)c5ncco5)[nH]4)cc3)cc2)[nH]1 [Example M92, methyl ((1S)-1-methyl-2-((S)-2-(5-(4′-(2-((2S)-1-(1,3-oxazol-2-ylcarbonyl)-2-pyrrolidinyl)-1H-imidazol-5-yl)-4-biphenylyl)-1H-imidazol-2-yl)-1-pyrrolidinyl)-2-oxoethyl)carbamate] | 1000 to 10000
9 | COC(=O)N[C@@H](C(=O)N1CCC[C@@H]1c1ncc(-c2ccc(-c3ccc(-c4cnc([C@@H]5CC[C@H](c6ccccc6)N5C(=O)[C@H](NC(=O)OC)c5ccccc5)[nH]4)cc3)cc2)[nH]1)c1ccccc1 [Example F6, methyl ((1R)-2-((2R)-2-(5-(4′-(2-((2S,5R)-1-((2R)-2-((methoxycarbonyl)amino)-2-phenylacetyl)-5-phenyl-2-pyrrolidinyl)-1H-imidazol-5-yl)-4-biphenylyl)-1H-imidazol-2-yl)-1-pyrrolidinyl)-2-oxo-1-phenylethyl)carbamate] | 0.001 to 0.999
10 | COC(=O)N[C@@H](C)C(=O)N1CCC[C@H]1c1ncc(-c2cnc(-c3ccc(-c4[nH]c([C@@H]5CCCN5C(=O)[C@H](C)NC(=O)OC)nc4C(F)(F)F)cc3)nc2)[nH]1 [Example J50, methyl ((1S)-2-((2S)-2-(5-(4-(5-(2-((2S)-1-(N-(methoxycarbonyl)-L-alanyl)-2-pyrrolidinyl)-1H-imidazol-5-yl)-2-pyrimidinyl)phenyl)-4-(trifluoromethyl)-1H-imidazol-2-yl)-1-pyrrolidinyl)-1-methyl-2-oxoethyl)carbamate] | 0.001 to 0.999
11 | COC(=O)N[C@@H](Cc1cn(C)cn1)C(=O)N1CCC[C@H]1c1ncc(-c2ccc(-c3ccc(-c4cnc([C@@H]5CCCN5C(=O)[C@@H](NC(=O)OC)C(C)C)[nH]4)cc3)cc2)[nH]1 [cj-42, methyl ((1S)-1-(((2S)-2-(5-(4′-(2-((2S)-1-((2S)-2-((methoxycarbonyl)amino)-3-(1-methyl-1H-imidazol-4-yl)propanoyl)-2-pyrrolidinyl)-1H-imidazol-5-yl)-4-biphenylyl)-1H-imidazol-2-yl)-1-pyrrolidinyl)carbonyl)-2-methylpropyl)carbamate] | 0.001 to 0.999
12 | COC(=O)N[C@@H](C(=O)N1CCC[C@H]1c1ncc(-c2ccc(-c3ccc(-c4cnc([C@@H]5CCCN5C(=O)c5ccccc5F)[nH]4)cc3)cc2)[nH]1)c1ccccc1 [Example 84-40, methyl ((1R)-2-((2S)-2-(5-(4′-(2-((2S)-1-(2-fluorobenzoyl)-2-pyrrolidinyl)-1H-imidazol-5-yl)-4-biphenylyl)-1H-imidazol-2-yl)-1-pyrrolidinyl)-2-oxo-1-phenylethyl)carbamate] | 0.001 to 0.999
13 | COC(=O)N[C@@H](C)C(=O)N1CCC[C@H]1c1ncc(-c2ccc(-c3ccc(-c4cnc([C@@H]5CCCN5C(=O)[C@@H]5CCC[C@H]5NC(=O)OC)[nH]4)cc3)cc2)[nH]1 [cj-108, methyl ((1R,2R)-2-(((2S)-2-(5-(4′-(2-((2S)-1-(N-(methoxycarbonyl)-L-alanyl)-2-pyrrolidinyl)-1H-imidazol-5-yl)-4-biphenylyl)-1H-imidazol-2-yl)-1-pyrrolidinyl)carbonyl)cyclopentyl)carbamate] | 0.001 to 0.999
14 | COC(=O)N[C@@H](Cc1ccc(OCc2ccccc2)cc1)C(=O)N1CCC[C@H]1c1ncc(-c2ccc(-c3ccc(-c4cnc([C@@H]5CCCN5C(=O)[C@@H](NC(=O)OC)C(C)C)[nH]4)cc3)cc2)[nH]1 [cj-104, methyl ((1S)-1-(((2S)-2-(5-(4′-(2-((2S)-1-(O-benzyl-N-(methoxycarbonyl)-L-tyrosyl)-2-pyrrolidinyl)-1H-imidazol-5-yl)-4-biphenylyl)-1H-imidazol-2-yl)-1-pyrrolidinyl)carbonyl)-2-methylpropyl)carbamate] | 0.001 to 0.999
15 | COC(=O)N[C@@H](Cc1ccc(CN)cc1)C(=O)N1CCC[C@H]1c1ncc(-c2ccc(-c3ccc(-c4cnc([C@@H]5CCCN5C(=O)[C@@H](NC(=O)OC)C(C)C)[nH]4)cc3)cc2)[nH]1 [cj-103, methyl ((1S)-1-(4-(aminomethyl)benzyl)-2-((2S)-2-(5-(4′-(2-((2S)-1-((2S)-2-((methoxycarbonyl)amino)-3-methylbutanoyl)-2-pyrrolidinyl)-1H-imidazol-5-yl)-4-biphenylyl)-1H-imidazol-2-yl)-1-pyrrolidinyl)-2-oxoethyl)carbamate] | 0.001 to 0.999
16 | COC(=O)N[C@H](C(=O)N1CCC[C@H]1c1ncc(-c2ccc(-c3ccc(-c4cnc([C@@H]5CCCN5C(=O)[C@@H](NC(=O)OC)C(C)(C)C)[nH]4)cc3)cc2)[nH]1)C(C)C [Example M72, methyl ((1S)-1-(((2S)-2-(5-(4′-(2-((2S)-1-((2S)-2-((methoxycarbonyl)amino)-3,3-dimethylbutanoyl)-2-pyrrolidinyl)-1H-imidazol-5-yl)-4-biphenylyl)-1H-imidazol-2-yl)-1-pyrrolidinyl)carbonyl)-2-methylpropyl)carbamate] | 1 to 99
17 | COC(=O)N[C@H](C)C(=O)N1CCC[C@H]1c1ncc(-c2ccc(-c3ccc(-c4cnc([C@@H]5CCCN5C(=O)[C@@H](C)NC(=O)OC)[nH]4)cc3)cc2)[nH]1 [Example M18, methyl ((1R)-2-((2S)-2-(5-(4′-(2-((2S)-1-(N-(methoxycarbonyl)-D-alanyl)-2-pyrrolidinyl)-1H-imidazol-5-yl)-4-biphenylyl)-1H-imidazol-2-yl)-1-pyrrolidinyl)-1-methyl-2-oxoethyl)carbamate] | 1000 to 10000
18 | COC(=O)N[C@@H]1CC[C@H](C(=O)N2CCC[C@H]2c2ncc(-c3ccc(-c4ccc(-c5cnc([C@@H]6CCCN6C(=O)[C@H]6CC[C@@H](NC(=O)OC)C6)[nH]5)cc4)cc3)[nH]2)C1 [cj-144, dimethyl (4,4′-biphenyldiylbis(1H-imidazole-5,2-diyl(2S)-2,1-pyrrolidinediylcarbonyl(1R,3S)-3,1-cyclopentanediyl))biscarbamate] | 0.001 to 0.999
19 | O=C(C(c1ccccc1)N1CCNCC1)N1CCC[C@H]1c1ncc(-c2ccc(-c3ccc(-c4c[nH]c([C@@H]5CCCN5C(=O)[C@H]5CCCO5)n4)cc3)cc2)[nH]1 (stereo partly drawn) [Example 103-7, 1-(2-oxo-1-phenyl-2-((2S)-2-(5-(4′-(2-((2S)-1-((2R)-tetrahydro-2-furanylcarbonyl)-2-pyrrolidinyl)-1H-imidazol-4-yl)-4-biphenylyl)-1H-imidazol-2-yl)-1-pyrrolidinyl)ethyl)piperazine] | 0.001 to 0.999
